We go through 1 compound from US6166038A, “Aminopyrazole derivatives” (Banyu Pharmaceutical Co., Ltd., priority 1996, dated 2000).

The experiment deals with T1, human NPY Y5 receptor (Homo sapiens, UniProt Q15761).
T1 construct: expressed in transfected cells; host or cells: COS-7, CHO and LM(tk-)
T1 sequence (Q15761 1-445): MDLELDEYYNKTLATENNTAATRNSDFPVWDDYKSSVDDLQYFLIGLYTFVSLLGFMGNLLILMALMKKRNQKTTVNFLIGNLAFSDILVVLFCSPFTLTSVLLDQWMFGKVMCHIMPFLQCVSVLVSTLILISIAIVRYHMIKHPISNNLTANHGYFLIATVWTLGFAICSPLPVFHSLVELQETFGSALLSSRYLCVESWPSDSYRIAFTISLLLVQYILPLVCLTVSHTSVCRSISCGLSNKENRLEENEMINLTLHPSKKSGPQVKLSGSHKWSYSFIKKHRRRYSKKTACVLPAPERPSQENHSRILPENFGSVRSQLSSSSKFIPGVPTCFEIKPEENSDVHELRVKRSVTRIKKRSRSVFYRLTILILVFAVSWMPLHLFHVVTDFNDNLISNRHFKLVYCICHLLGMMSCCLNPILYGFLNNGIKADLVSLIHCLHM
Description: test of inhibition of NPY binding ([125I] peptide YY binding to membranes of NPY Y5 receptor-expressing cells). The note with it: [125I] peptide YY, 20,000 cpm, 25° C., 2 hours, pH 7.4; membranes of transfected cells; read-out: IC50 value (inhibition of specific binding of peptide YY). The text has this:
cDNA Sequence encoding a human NPY Y5 receptor [International Publication Wo 96/16542] was cloned into expression vectors pcDNA3, pRc/RSV (manufactured by Invitrogen) and pCI-neo (manufactured by Promega). Using the cationic lipid method [see Proceedings of the National Academy of Science of the United States of America, vol.84, p.7413 (1987)], host cells COS-7, CHO and LM(tk-) (American Type Culture Collection) were transfected with the thus prepared expression vectors to obtain cells in which the NPY Y5 receptor had been expressed.
Each of the membrane preparations thus prepared from the cells in which the NPY Y5 receptor had been expressed was incubated together with each compound to be tested and 20,000 cpm of [^125 I] peptide YY (manufactured by Amersham) at 25° C. for 2 hours in an assay buffer solution (25 mM HEPES buffer, pH 7.4, containing 10 mM magnesium chloride, 1 mM phenylmethylsulfonyl fluoride and 0.1% bacitracin) and then, the reaction mixture was filtered through a glass filter GF/C. After washing with 50 mM Tris buffer, pH 7.4, containing 0.3% BSA, radioactivity on the glass filter was measured using a gamma counter. […]

One may read the IC50 as the concentration that gives 50% inhibition. Consider `COc1ccc(-c2cc(NC(=O)C3CCN(c4cccc(Cl)c4)CC3)n[nH]2)cc1` [Example 4, 3-[1-(3-chlorophenyl)piperidin-4-yl]carbonylamino-5-(4-methoxyphenyl)pyrazole], for which the IC50 was 39 nM.
